Reference: publication PMC11329928, “Design, synthesis and structure-activity relationship (SAR) studies of an unusual class of non-cationic fatty amine-tripeptide conjugates as novel synthetic antimicrobial agents” (Frontiers in Pharmacology, 2024)
Structures can show the parent of a compound that is named as a salt.

Columns and labels:
S. pyogenes T membrane [1] = assay: Membrane permeation, SYTOX Green; type: cell-based, Streptococcus pyogenes
Experimental: (§1) Permeation and depolarization of S. pyogenes ^T membrane by DICAMs were assayed with the fluorescent probes SYTOX Green and DiSC3(5), respectively, in a Varioskan Flash microplate reader (Thermo Scientific; Spain) using FluoroNunc 96-well plates (Thermo Scientific; Spain). For permeation assays, cells were grown to an OD550 ≈ 0.3, washed once with PBS pH 7.2 (3,800 × g, 7 min, room temperature), and adjusted to a final OD550 ≈ 0.4 (∼10^8 CFU/mL) with the same buffer before mixing in the dark with SYTOX Green (5 µM final concentration). One hundred µL of this suspension was dispensed per plate well and the signal stabilization was monitored for 15 min (λex = 485 nm; λem = 520 nm). Then, 100 µL of two-fold serially diluted lipopeptide samples was added and changes in fluorescence intensity were registered for 60 min at 37°C. SYTOX Green (900 Da) binds to intracellular DNA when the cell membrane is damaged, thereby increasing fluorescence intensity ([Roth et al., 1997]). Positive controls (100% membrane permeabilization) were carried out by adding Titron X-100 (0.01% final concentration) to untreated bacterial samples ([Rathinakumar et al., 2009]). For membrane depolarization assays, 180 µL of an OD550 ≈ 0.2 culture (BHI; ≈ 10^7 CFU/mL) supplemented with DiSC3(5) (1 µM final concentration) was distributed per well, and signal stabilization was registered for 30 min (λex = 622 nm; λem = 670 nm) ([Te Winkel et al., 2016]). Subsequently, 20 µL of a two-fold serial dilution of lipopeptide in culture medium was added, and fluorescence intensity was recorded for 60 min at 37°C. Partition of DiSC3(5) to the surface of polarized cells decreases the probe fluorescence, and its release, caused by membrane depolarization, results in an increase in fluorescence. […] The background signal of controls with bacterial cells without the fluorescent probe, as well as the dye fluorescence in the presence of the tested compounds without bacteria, were also registered. No change in the fluorescence intensity of the probes occurred upon DICAM addition in the absence of bacterial cells.

S. pyogenes T membrane [2] = assay: Membrane depolarization, DiSC3(5); type: cell-based, Streptococcus pyogenes; settings: S. pyogenes T in BHI, OD550 ≈ 0.2, DiSC3(5) 1 µM, 37°C
Experimental: as §1

S. pneumoniae D39 = assay: Viability after challenge at mid-exponential (T2) or early stationary (T3) phase; type: cell-based, Streptococcus pneumoniae; settings: S. pneumoniae D39, 50 µM, C+Y, 37°C
Experimental: The effect of DICAMs at different phases of culture growth was also investigated. DICAMs (50 μM) were added to cultures in the early exponential phase (OD550 ≈ 0.15; T1), late exponential phase (OD550 ≈ 0.3–0.4; T2), or near the stationary phase of growth (OD550 ≈ 0.5–0.7; T3) and the evolution of OD values was followed at 37°C for at least 2 h. By default, the variation in cell viability was also determined. Negative and positive controls were run in parallel.

[3] = test system: S. pneumoniae R6 biofilms; assay: Killing of preformed biofilms; type: cell-based, Streptococcus pneumoniae; settings: S. pneumoniae R6 biofilm, 1 h, 37°C, plating on blood agar
Experimental: Biofilms were prepared as described ([Domenech and García, 2020]). Briefly, S. pneumoniae R6 cells in late exponential growth (OD550 ≈ 0.6; C + Y medium) were pelleted by centrifugation, resuspended in an equal volume of fresh medium, diluted 1/100 (4.5 × 10^6 CFU/mL), and then dispensed (200 µL per well) in 96-well flat-bottom polystyrene plates (Costar 3,595; Corning; Spain). After plate incubation at 34°C for 4.5 h without shaking, bacterial growth (non-adherent cells plus biofilm-forming cells) was determined by measuring the OD550 using a VersaMax microplate absorbance reader. The supernatant (non-adherent cells) was replaced by 200 μL of DICAM 4 (150, 300 or 600 µM) prepared by dilution in sterile water and plate incubation was continued for 1 h at 37°C. Plates were then washed and the biofilms disaggregated in sterile water for viable cell determination in Mueller-Hinton blood agar plates after overnight incubation at 37°C. For the observation of biofilms by CLSM, bacteria were grown on glass-bottomed dishes (WillCo-dish; WillCo Wells, Netherlands) and treated as above, plating 2 mL of the final inoculum per disc and then adding 0.5 mL of DICAM solution. […] Laser intensity and gain were kept the same for all images and they were analyzed using LCS software from Leica. […]

[4] = test system: A549, IMR-90 and HeLa cells; settings: 48 h
Experimental: DICAM’s cytotoxicity was determined employing a modified MTT assay as described elsewhere ([Antúnez-Mojica et al., 2016]) using human lung carcinoma epithelial cells A549, human fetal lung fibroblasts IMR-90, and human HeLa cervix carcinoma cells treated with increasing concentrations of DICAMs (0.8–200 µM range). A549 cells were grown in RPMI 1640 (Gibco; Fisher Scientific, Spain) supplemented with 10% FCS, 2 mM glutamine, 100 IU/mL penicillin and 100 μg/mL streptomycin. IMR-90 and HeLa cells were cultured in DMEM (Gibco; Fisher Scientific, Spain) supplemented with 10% FCS, 2 mM L-glutamine, 1 mM pyruvate, 100 IU/L penicillin, 100 μg/mL streptomycin and 40 μg/mL gentamycin. Cell viability was assessed after 48 h exposure to DICAMs. Vinblastine was used as a positive control. IC50 value is the concentration that gives 50% inhibition of cell growth and was determined using SigmaPlot (Systat) fitting to a Four Parameter Logistic curve.

CCCCCCCCCCCCCCCCCCNC(=O)[C@H](CCC(=O)O)NC(=O)[C@H]1CCCN1C(=O)[C@H](C)NC(=O)OCc1ccccc1 [DICAM 3, Cbz-Ala- Pro -Glu-NH-C18H37]
Lag before steady increase in SYTOX Green fluorescence (S. pyogenes T membrane [1]; S. pyogenes T in PBS pH 7.2, SYTOX Green 5 µM, 37°C, dose-dependent lag): more than 7 min
Time to plateau of SYTOX green influx (incomplete influx) (S. pyogenes T membrane [1]; S. pyogenes T, below 12.5 µM compound): around 40 min
Time for dissipation of the transmembrane potential (S. pyogenes T membrane [2]): 5 to 10 min

CCCCCCCCCCCCCCCCCCNC(=O)[C@H](CCC(=O)O)NC(=O)[C@H]1CCCN1C(=O)[C@H](C)N [DICAM 4, Ala- Pro -Glu-NH-C18H37 ·HCl]
Death, addition at T3, approximately 3 h (S. pneumoniae D39): ≥ 98%
Decrease of viability, addition at T3, approximately 3 h (S. pneumoniae D39): ≈ 1.7 log units
Decrease of viability, addition at T2, 30 min (S. pneumoniae D39; 30 min incubation): ≈ 3 log units
Decrease of viability, addition at T2, 3 h (S. pneumoniae D39; 3 h incubation): ~5 log units
Cells killed in preformed biofilms at 300 μM [3]: ~90%

CCCCCCCCCCCCCCCCCCNC(=O)[C@H](C)NC(=O)[C@H]1CCCN1C(=O)[C@H](C)N [DICAM 14, Ala- Pro -Ala-NH-C18H37 · HCl]
IC50 [4]: 7.3 µM

CCCCCCCCCCCCCCCCCCNC(=O)[C@H](CCC(=O)O)NC(=O)[C@H]1CCCN1C(=O)[C@H](CCC(=O)O)NC(=O)OCc1ccccc1 [DICAM 19, Cbz-Glu- Pro -Glu-NH-C18H37]
Time for dissipation of the transmembrane potential (S. pyogenes T membrane [2]): 5 to 10 min
